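A five-concentration, 48-hour dose response in 96-well plates underlies each endpoint, interpolated linearly between surrounding concentrations. GI50 is the concentration that inhibits growth by half. The concentration for full growth arrest is given as TGI.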
How the values were obtained:
Experiment in all cases: growth of human tumour cells (NCI), 48 h
HL-60(TB) leukemia = tested on: HL-60(TB) leukemia
A549 NSCLC = tested on: A549 NSCLC
CAKI-1 renal = tested on: CAKI-1 renal
NCI-H226 lung = tested on: NCI-H226 lung
HCT-15 colon = tested on: HCT-15 colon
LOX IMVI melanoma = tested on: LOX IMVI melanoma
SK-MEL-28 melanoma = tested on: SK-MEL-28 melanoma
COLO 205 colon = tested on: COLO 205 colon
M14 melanoma = tested on: M14 melanoma
BT-549 breast = tested on: BT-549 breast

In the case of C=C1NC(=O)C(C(C)CC)NC(=O)C2CSCC(NC(=O)CCC(=O)O)C(=O)NC(Cc3ccccc3)C(=O)NC(C)C(=O)NC(CC(C)CC)C(=O)NC(C(=O)NC(Cc3ccccc3)C(=O)N3CCCC3C(=O)N2)C(C)OC(=O)C(CO)NC(=O)C(C(O)COC)N(C)C(=O)C(C(C)C)NC(=O)C(CC(C)CC)NC1=O (centres undefined), the GI50 (HL-60(TB) leukemia) is reported as 0.0211 µM, the GI50 (A549 NSCLC) is reported as 0.0268 µM and the TGI (A549 NSCLC) is reported as > 6 µM. For the same molecule, the GI50 (CAKI-1 renal) was 0.0246 µM, the TGI (CAKI-1 renal) was > 6 µM and the GI50 (NCI-H226 lung) was 0.117 µM. The TGI (NCI-H226 lung) was > 6 µM, the GI50 (HCT-15 colon) was 0.0183 µM and the TGI (HCT-15 colon) was > 6 µM. For the same molecule, the GI50 (LOX IMVI melanoma) was 0.0304 µM, the TGI (LOX IMVI melanoma) was > 6 µM and the GI50 (SK-MEL-28 melanoma) was > 6 µM. The TGI (SK-MEL-28 melanoma) was > 6 µM, the GI50 (COLO 205 colon) was 0.0129 µM and the TGI (COLO 205 colon) was 0.0557 µM. For the same molecule, the GI50 (M14 melanoma) was 0.00878 µM, the TGI (M14 melanoma) was 0.0391 µM and the GI50 (BT-549 breast) was 0.0728 µM. The TGI (BT-549 breast) was > 6 µM.

Fc1cc2[nH]ncc2c2c3c(c(-c4cn[nH]c4)nc12)CCCC3 gave a GI50 (HL-60(TB) leukemia) of 1.81 µM, a TGI (HL-60(TB) leukemia) of 5.53 µM and a GI50 (A549 NSCLC) of 0.844 µM. For the same molecule, the TGI (A549 NSCLC) was > 100 µM, the GI50 (CAKI-1 renal) was 0.398 µM and the TGI (CAKI-1 renal) was 7.08 µM. It also gave a GI50 (NCI-H226 lung) of 1.28 µM, a TGI (NCI-H226 lung) of 5.85 µM and a GI50 (HCT-15 colon) of 0.56 µM. For the same molecule, the TGI (HCT-15 colon) was > 61.5 µM, the GI50 (LOX IMVI melanoma) was 0.486 µM and the TGI (LOX IMVI melanoma) was 2.4 µM. The GI50 (SK-MEL-28 melanoma) was 1.19 µM, the TGI (SK-MEL-28 melanoma) was 3.88 µM and the GI50 (COLO 205 colon) was 0.658 µM. For the same molecule, the TGI (COLO 205 colon) was 2.62 µM, the GI50 (M14 melanoma) was 0.541 µM and the TGI (M14 melanoma) was 4.54 µM. For the same molecule, the GI50 (BT-549 breast) was 1.38 µM and the TGI (BT-549 breast) was 4.94 µM.

For CCOC(=O)c1cc2nc3ccccc3c(=O)n2c2ccccc12, the TGI (HL-60(TB) leukemia) was > 10 µM, the TGI (A549 NSCLC) was > 10 µM and the TGI (CAKI-1 renal) was > 10 µM. The TGI (NCI-H226 lung) was > 10 µM, the TGI (HCT-15 colon) was > 10 µM and the TGI (LOX IMVI melanoma) was > 10 µM. For the same molecule, the TGI (SK-MEL-28 melanoma) was > 10 µM, the TGI (COLO 205 colon) was > 10 µM and the TGI (M14 melanoma) was > 10 µM. For the same molecule, the TGI (BT-549 breast) was > 10 µM.

With O=C1c2cc3c(cc2-c2c1c1ccc(F)cc1c(=O)n2CCCNCCO)OCO3 the GI50 (HL-60(TB) leukemia) was 0.0291 µM, the TGI (HL-60(TB) leukemia) was 0.198 µM and the GI50 (A549 NSCLC) was 0.0339 µM. For the same molecule, the TGI (A549 NSCLC) was 0.188 µM, the GI50 (CAKI-1 renal) was 0.0628 µM and the TGI (CAKI-1 renal) was 1.44 µM. The GI50 (NCI-H226 lung) was 0.0411 µM, the TGI (NCI-H226 lung) was 0.192 µM and the GI50 (HCT-15 colon) was 0.0277 µM. It also gave a TGI (HCT-15 colon) of 0.27 µM, a GI50 (LOX IMVI melanoma) of 0.0139 µM and a TGI (LOX IMVI melanoma) of 0.0582 µM. For the same molecule, the GI50 (SK-MEL-28 melanoma) was 0.329 µM, the TGI (SK-MEL-28 melanoma) was 1.77 µM and the GI50 (COLO 205 colon) was 0.0423 µM. The TGI (COLO 205 colon) was 0.81 µM, the GI50 (M14 melanoma) was 0.0367 µM and the TGI (M14 melanoma) was 1.09 µM. The GI50 (BT-549 breast) was 0.238 µM and the TGI (BT-549 breast) was 1.34 µM.

In the case of Cc1cc2c(cc1Cl)SC(N(N(C)C)S(=O)(=O)c1ccc(Cl)cc1)=NS2(=O)=O, the GI50 (HL-60(TB) leukemia) is reported as 35.2 µM, the TGI (HL-60(TB) leukemia) is reported as 89.8 µM and the GI50 (A549 NSCLC) is reported as 20.3 µM. For the same molecule, the TGI (A549 NSCLC) was > 100 µM, the GI50 (CAKI-1 renal) was 30.5 µM and the TGI (CAKI-1 renal) was 66.6 µM. The GI50 (NCI-H226 lung) was 30.5 µM, the TGI (NCI-H226 lung) was 89.9 µM and the GI50 (HCT-15 colon) was 25.9 µM. The TGI (HCT-15 colon) was > 100 µM, the GI50 (LOX IMVI melanoma) was 33.4 µM and the TGI (LOX IMVI melanoma) was > 100 µM. For the same molecule, the GI50 (SK-MEL-28 melanoma) was 29.1 µM, the TGI (SK-MEL-28 melanoma) was > 100 µM and the GI50 (COLO 205 colon) was 44 µM. For the same molecule, the TGI (COLO 205 colon) was > 100 µM, the GI50 (M14 melanoma) was 27.8 µM and the TGI (M14 melanoma) was > 100 µM. It also gave a GI50 (BT-549 breast) of 19.4 µM and a TGI (BT-549 breast) of 48.7 µM.

With O=C(CCc1nnc2sc(-c3ccc(Cl)cc3Cl)nn12)c1nc2ncccc2[nH]1 the GI50 (HL-60(TB) leukemia) was 2.91 µM, the TGI (HL-60(TB) leukemia) was 12.8 µM and the GI50 (A549 NSCLC) was 2.78 µM. For the same molecule, the TGI (A549 NSCLC) was 10.4 µM, the GI50 (CAKI-1 renal) was 1.42 µM and the TGI (CAKI-1 renal) was 3.15 µM. For the same molecule, the GI50 (NCI-H226 lung) was 1.7 µM, the TGI (NCI-H226 lung) was 3.66 µM and the GI50 (HCT-15 colon) was 1.64 µM. For the same molecule, the TGI (HCT-15 colon) was 4.61 µM, the GI50 (LOX IMVI melanoma) was 1.69 µM and the TGI (LOX IMVI melanoma) was 3.08 µM. It also gave a GI50 (SK-MEL-28 melanoma) of 2.44 µM, a TGI (SK-MEL-28 melanoma) of 5.65 µM and a GI50 (COLO 205 colon) of 1.93 µM. The TGI (COLO 205 colon) was 4.2 µM, the GI50 (M14 melanoma) was 3.35 µM and the TGI (M14 melanoma) was 16.5 µM. It also gave a GI50 (BT-549 breast) of 1.98 µM and a TGI (BT-549 breast) of 4.36 µM.

Source: PubChem BioAssay (NCI)
